ChEMBL document CHEMBL1201862, “PubChem BioAssay data set” (2004)
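How tested: cells in 96-well plates exposed to compound for 48 hours at five concentrations. GI50 = concentration required for 50% inhibition of growth.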 Calls of active or inactive are those of the source. Cut-off read from the data, not from the text of the source: active = GI50 up to about 1.1 µM and inactive = higher.

Assays:
Assay in all cases: NCI-60 cell line screen, 48 h
[1] = system: MDA-MB-435
[2] = system: SF-295
[3] = system: SK-MEL-2
[4] = system: DU-145
[5] = system: COLO 205
[6] = system: SK-MEL-5
[7] = system: A549
[8] = system: TK-10
[9] = system: NCI/ADR-RES
[10] = system: NCI-H226
[11] = system: HOP-62
[12] = system: MCF7
[13] = system: UACC-62
[14] = system: SF-268
[15] = system: MDA-N
[16] = system: PC-3
[17] = system: 786-0
[18] = system: SK-MEL-28
[19] = system: ACHN
[20] = system: SF-539
[21] = system: MOLT-4
[22] = system: MDA-MB-231
[23] = system: Malme-3M
[24] = system: M14
[25] = system: EKVX
[26] = system: HCC 2998
[27] = system: UACC-257
[28] = system: CCRF-CEM
[29] = system: OVCAR-8
[30] = system: OVCAR-4
[31] = system: SNB-19
[32] = system: BT-549
[33] = system: KM12
[34] = system: SK-OV-3
[35] = system: LOX IMVI
[36] = system: OVCAR-5
[37] = system: RXF 393
[38] = system: K562
[39] = system: A498
[40] = system: HCT-15
[41] = system: NCI-H460
[42] = system: SW-620
[43] = system: U-251
[44] = system: SNB-75
[45] = system: NCI-H522
[46] = system: IGROV-1
[47] = system: HCT-116
[48] = system: NCI-H23
[49] = system: T47D
[50] = system: Hs-578T
[51] = system: UO-31
[52] = system: HT-29
[53] = system: RPMI-8226
[54] = system: SR
[55] = system: SN12C
[56] = system: HL-60
[57] = system: HOP-92
[58] = system: CAKI-1
[59] = system: OVCAR-3

Measured: GI50

BC(=O)NC(CC(C)C)C(=O)NC1c2ccsc2C(=O)C1O.CN(C)C (centres undefined)
> 100 µM: [40]
inactive: [1] > 100 µM | [2] > 100 µM | [3] > 100 µM | [4] > 100 µM | [5] > 100 µM | [6] > 100 µM | [7] > 100 µM | [8] > 100 µM | [9] > 100 µM | [10] > 100 µM | [11] > 100 µM | [12] > 100 µM | [13] > 100 µM | [14] > 100 µM | [15] > 100 µM | [16] > 100 µM | [17] > 100 µM | [18] > 100 µM | [19] > 100 µM | [20] > 100 µM | [21] > 100 µM | [22] > 100 µM | [23] > 100 µM | [24] > 100 µM | [25] > 100 µM | [26] > 100 µM | [27] > 100 µM | [28] > 100 µM | [29] > 100 µM | [30] > 100 µM | [31] > 100 µM | [32] > 100 µM | [33] > 100 µM | [34] > 100 µM | [35] > 100 µM | [36] > 100 µM | [37] > 100 µM | [38] > 100 µM | [39] > 100 µM | [41] > 100 µM | [42] > 100 µM | [43] > 100 µM | [44] > 100 µM | [45] > 100 µM | [46] > 100 µM | [47] > 100 µM | [48] > 100 µM | [49] > 100 µM | [50] > 100 µM | [51] > 100 µM | [52] > 100 µM | [53] > 100 µM | [54] > 100 µM | [55] > 100 µM | [56] > 100 µM

Nc1nc(Cl)cc(NCC2(CO)CCC(OCc3ccccc3)C2)n1 (centres undefined)
active: [48] 0.641 µM
inactive: [1] 14.8 µM | [2] 31 µM | [3] 21.3 µM | [4] 27.7 µM | [5] 21.1 µM | [6] 2.82 µM | [7] 15.2 µM | [8] 11.2 µM | [9] 3.81 µM | [10] 14.8 µM | [11] 25.4 µM | [12] 1.59 µM | [13] 21.4 µM | [14] 26.2 µM | [15] 16.8 µM | [16] 8.24 µM | [17] 35.2 µM | [18] 19.5 µM | [19] 5.69 µM | [20] 29.7 µM | [21] 4.99 µM | [22] 7.45 µM | [23] 20.8 µM | [24] 20.7 µM | [25] 10.2 µM | [27] 12.8 µM | [28] 14.6 µM | [29] 22.1 µM | [30] 12.1 µM | [31] 23.1 µM | [32] 13.9 µM | [33] 21 µM | [34] 11.1 µM | [35] 2.83 µM | [57] 3.57 µM | [36] 37.7 µM | [37] 27 µM | [38] 7.26 µM | [39] 8.24 µM | [41] 19.3 µM | [58] 8.09 µM | [42] 60 µM | [43] 29.9 µM | [44] 12.4 µM | [45] 1.31 µM | [46] 18.2 µM | [47] 16.9 µM | [49] 1.39 µM | [50] 14.4 µM | [59] 30.5 µM | [51] 11.3 µM | [52] 11.1 µM | [53] 34.4 µM | [54] 4.06 µM | [55] 8.89 µM | [56] 21.4 µM
15 µM: [40]

CN(C)c1ccc(/C=C/c2ccnc3ccc4ccccc4c23)cc1
45.9 µM: [40]
active: [12] 0.0873 µM
inactive: [1] 24.2 µM | [3] 25.6 µM | [4] 44.1 µM | [5] 53.1 µM | [6] 71 µM | [7] 35.7 µM | [8] 19.1 µM | [9] 43.3 µM | [11] 33.4 µM | [13] 53.1 µM | [14] 39.7 µM | [15] 16.3 µM | [16] 92.5 µM | [17] 39.5 µM | [18] 38.5 µM | [19] 22.8 µM | [20] 28.4 µM | [21] > 100 µM | [22] 34.5 µM | [23] 25.3 µM | [24] 81.3 µM | [27] 89.5 µM | [28] > 100 µM | [29] 33.1 µM | [31] 33.9 µM | [32] 37.5 µM | [33] 33.3 µM | [34] 27.9 µM | [35] 43.9 µM | [57] 73.1 µM | [37] 17.7 µM | [38] 53 µM | [39] 24.8 µM | [41] 29.6 µM | [58] 38.4 µM | [42] 47 µM | [43] 28.6 µM | [44] 26.5 µM | [45] 17.3 µM | [46] 12.7 µM | [47] 36.5 µM | [48] 52.4 µM | [49] 16.7 µM | [50] 36.6 µM | [59] 51.9 µM | [51] 45.6 µM | [52] 43.5 µM | [53] 79.4 µM | [54] 13.2 µM | [55] 74.3 µM | [56] > 100 µM

COc1ccc2cc(CNCCCCCCNCc3ccc4cc(OC)ccc4c3)ccc2c1
active: [1] 0.204 µM | [2] 0.486 µM | [5] 0.154 µM | [12] 0.319 µM | [14] 0.565 µM | [15] 0.183 µM | [16] 0.471 µM | [17] 0.902 µM | [18] 0.471 µM | [21] 0.205 µM | [22] 0.465 µM | [23] 1.05 µM | [24] 0.169 µM | [26] 0.132 µM | [28] 0.153 µM | [29] 0.531 µM | [31] 0.785 µM | [33] 0.221 µM | [35] 0.181 µM | [36] 0.885 µM | [38] 0.0897 µM | [41] 0.255 µM | [42] 0.182 µM | [43] 0.231 µM | [44] 0.815 µM | [45] 0.64 µM | [47] 0.176 µM | [49] 0.452 µM | [59] 0.575 µM | [52] 0.186 µM | [53] 0.208 µM | [54] 0.184 µM | [56] 0.181 µM
inactive: [3] 1.24 µM | [4] 1.58 µM | [6] 1.33 µM | [7] 1.86 µM | [8] 1.8 µM | [9] 1.44 µM | [10] 1.8 µM | [11] 1.64 µM | [13] 1.46 µM | [19] 1.57 µM | [20] 1.51 µM | [25] 1.39 µM | [27] 1.83 µM | [32] 1.72 µM | [34] 1.85 µM | [37] 1.52 µM | [39] 1.58 µM | [58] 1.38 µM | [46] 1.57 µM | [48] 2.11 µM | [50] 1.75 µM | [51] 1.63 µM | [55] 1.33 µM
0.406 µM: [40]

Nc1n[nH]c2c(C(=O)Nc3ccc(Cl)cc3)c(N)n(N)c(=O)c12
> 100 µM: [40]
inactive: [1] > 100 µM | [3] > 100 µM | [4] > 100 µM | [5] > 100 µM | [6] > 100 µM | [7] > 100 µM | [8] > 100 µM | [9] > 100 µM | [10] > 100 µM | [12] > 100 µM | [13] > 100 µM | [14] > 100 µM | [15] > 100 µM | [16] > 100 µM | [17] > 100 µM | [18] > 100 µM | [20] > 100 µM | [21] > 100 µM | [22] > 100 µM | [23] > 100 µM | [24] > 100 µM | [25] > 100 µM | [26] > 100 µM | [27] > 100 µM | [28] > 100 µM | [29] > 100 µM | [30] > 100 µM | [31] > 100 µM | [32] > 100 µM | [33] > 100 µM | [34] > 100 µM | [35] > 100 µM | [36] > 100 µM | [37] > 100 µM | [38] > 100 µM | [39] > 100 µM | [41] > 100 µM | [58] > 100 µM | [42] > 100 µM | [43] > 100 µM | [44] > 100 µM | [45] > 100 µM | [46] > 100 µM | [47] > 100 µM | [48] > 100 µM | [49] > 100 µM | [50] > 100 µM | [59] > 100 µM | [51] > 100 µM | [52] > 100 µM | [53] > 100 µM | [54] > 100 µM | [55] > 100 µM | [56] > 100 µM
